The results in this text go back to ChEMBL document CHEMBL5370648, “Rational Design of Bioorthogonally Activatable PROTAC for Tumor-Targeted Protein Degradation” (J Med Chem, 2023).

Series [1] addresses T1, von Hippel-Lindau disease tumor suppressor/Bromodomain-containing protein 4 (Homo sapiens, UniProt O60885+P40337). As to the kind of experiment: PROTAC activity at BRD4/VHL E3 ligase in 12 hrs BODIPY-TZ treated human MCF7 cells assessed as reduction in BRD4 expression at upto 2.0 uM incubated for 48 hrs by Western blot analysis. In kind it is cell-based. In general terms: In western blotting, separated proteins are transferred to a membrane and probed.

Series [2] is described as follows: Drug uptake in 12 hrs BODIPY-TZ treated human […] cells assessed as strong fluorescence at 600 nM measured after 30 mins by fluorescence microscopy analysis. The settings on record: t47d, 0.5 h, 0.6 µM. It counts as ADME, cell-based.
The target of series [3] is T1, von Hippel-Lindau disease tumor suppressor/Bromodomain-containing protein 4. As to the kind of experiment: PROTAC activity at BRD4/VHL E3 ligase in 12 hrs BODIPY-TZ treated human MCF7 cells assessed as activation of caspase-3 expression incubated for 48 hrs by Western blot analysis. In kind it is cell-based.
Series [4] concerns MCF7. As to the kind of experiment: Antitumor activity against IR808-TZ treated human MCF7 cells xenografted in BALB/c nude mouse model assessed as inhibition of tumor cell proliferation by measuring reduction in Ki67 staining at 20 mg/kg administered for 16 days by immunohistochemical analysis. It counts as functional, organism-based. To be noted: time 16.0 day. (In general: In xenograft studies the graft and the host belong to different species.)

Series [5] concerns MCF7. As to the kind of experiment: Antitumor activity against human MCF7 cells xenografted in BALB/c nude mouse assessed as apoptosis at 20 mg/kg measured after 48 hrs in presence of IR808-TZ by Western blot analysis. It counts as functional, organism-based.
For series [6], the target named is T1, von Hippel-Lindau disease tumor suppressor/Bromodomain-containing protein 4. Nature of the series: PROTAC activity at BRD4/VHL E3 ligase in 12 hrs BODIPY-TZ treated human MDA-MB-231 cells assessed as reduction in BRD4 expression at upto 2.0 uM incubated for 48 hrs by Western blot analysis. In kind it is cell-based.
Series [7] has the same target. As to the kind of experiment: PROTAC activity at BRD4/VHL E3 ligase in 12 hrs BODIPY-TZ treated human T47D cells assessed as suppression of c-Myc expression incubated for 48 hrs by Western blot analysis. It counts as cell-based.
Series [8] has the same target. As to the kind of experiment: PROTAC activity at BRD4/VHL E3 ligase in human T47D cells assessed as induction of degradation of intracellular BRD4 at 200 nM incubated for 48 hrs by immunofluorescence staining assay. In kind it is cell-based.

Activity calls are given as the source filed them. No cut-off for these calls is given here.

T1 sequence (P40337 whole entry, looked up, other chains not shown): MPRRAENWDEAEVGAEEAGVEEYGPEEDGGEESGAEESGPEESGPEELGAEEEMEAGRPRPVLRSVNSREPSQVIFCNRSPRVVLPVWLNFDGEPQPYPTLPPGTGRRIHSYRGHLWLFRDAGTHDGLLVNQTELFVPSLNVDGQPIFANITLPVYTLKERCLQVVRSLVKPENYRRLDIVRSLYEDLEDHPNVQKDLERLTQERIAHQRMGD

As for `CC1=CC(C)=[N+]2C1=C(c1cccc(-c3nnc(C)nn3)c1)c1c(C)cc(C)n1[B-]2(F)F`, the result (in series [1]; in series [3]; with MCF7 [4]; in the series on MCF7 [5]; in series [6]; in series [7]) was Active. Moreover, the Drug uptake entry in series [2] is given as “Active”. Further, the result in series [8] was inactive.
